Measured values as given in patent US20110086870A1, “Combination Therapy” (AstraZeneca AB, priority 2003, published 2011).

Key:
[1] = tested on: human LS-174T colon tumour xenografts; assay: Human LS-174T colon tumour xenografts in Nude mice, test (a) 5-FU+ZD6474; type: in vivo; conditions: for Inhibition of Control Tumour Growth at day 13 / Regressions: number of tumours which had regressed by ≧10% in volume by day 13, compared with pre-treatment volume on day 0: ZD6474 25 mg/kg/day p.o. d 0-13, 5-FU 75 mg/kg i.v. d 0 and 7; for Inhibition of Control Tumour Growth at day 13: versus vehicle control; for Regressions: number of tumours which had regressed by ≧10% in volume by day 13, compared with pre-treatment volume on day 0: regressed tumours/tumours in group; for tumour regressions: share of tumours regressed by day 13, same doses as the table
Description: 10^7 LS-174T tumour cells in 0.2 ml of serum free Roswell Park Memorial Institute (RPMI)-1640 medium were injected subcutaneously (s.c.) into the flanks of 10 athymic (nu/nu genotype) mice. When tumour sizes reached 700-1000 mm^3 (3-4 weeks), tumours were surgically excised and smaller tumour fragments thereof (20-30 mg) were implanted s.c. in the right flank of 120 Nude mice. When tumours reached a volume of 100 to 200 mm^3 (14-16 days after the graft), mice were randomized into groups (13-15 per group) and treatment started.
• The control group (Group 1) received a daily oral (p.o.) administration of ZD6474 vehicle for 14 consecutive days (day 0-13) combined with two intravenous (i.v.) injections of saline (the vehicle for 5-FU) on day 0 and 7. • For Group 2, the treatments consisted of a daily p.o. administration of ZD6474 alone at 25 mg/kg/administration for 14 consecutive days (day 0-13) combined with two i.v. injections of saline (the vehicle for 5-FU) on day 0 and 7. ZD6474 was prepared as a suspension in 1% polysorbate 80 (i.e. a 1% (v/v) solution of polyoxyethylene (20) sorbitan mono-oleate in deionised water). • Group 3 received two i.v. injections of 5-FU at 75 mg/kg/injection, on day 0 and 7, combined with a daily p.o. administration of ZD6474 vehicle for 14 consecutive days (day 0-13). • Group 4 received daily p.o. administration of ZD6474 at 25 mg/kg/administration for 14 consecutive days (day 0-13) combined with two i.v. injections of 5-FU at 75 mg/kg/injection, on day 0 and 7.
The administration volume of ZD6474 was 10.0 ml/kg (200 μl for a 20 g mouse). The injection volume of 5-FU was 10.0 ml/kg (200 μl for a 20 g mouse).
Tumor volumes (mm^3) were assessed at least twice weekly by bilateral Vernier caliper measurement and, taking length to be the longest diameter across the tumor and width the corresponding perpendicular, calculated using the formula (π/6)×(length×width)×the square root of (length×width). Growth inhibition from the start of treatment was assessed by comparison of the differences in tumor volume between control and treated groups. For all mice, the study was stopped when tumours reached 2,000 mm^3 For all mice, the tumours were excised and weights recorded upon termination of the study.

[2] = tested on: human LS-174T colon tumour xenografts; assay: Human LS-174T colon tumour xenografts in Nude mice, test (b) CPT-11+ZD6474; type: in vivo; conditions: ZD6474 25 mg/kg/day p.o. d 0-20, CPT-11 20 mg/kg i.v. d 0, 7 and 14
Description: • The control group (Group 1) received a daily oral (p.o.) administration of ZD6474 vehicle for 14 consecutive days (day 0-13) combined with two intravenous (i.v.) injections of saline (the vehicle for CPT-11) on day 0 and 7. […]
Tumor volumes (mm^3) were assessed at least twice weekly by bilateral Vernier caliper measurement and, taking length to be the longest diameter across the tumor and width the corresponding perpendicular, calculated using the formula (π/6)×(length×width)×square root of (length×width). Growth inhibition from the start of treatment was assessed by comparison of the differences in tumor volume between control and treated groups. For all mice, the study was stopped when tumours reached 2,000 mm^3 For all mice, the tumours were excised and weights recorded upon termination of the study.

Compound | Inhibition of Control Tumour Growth at day 13 [1] | Regressions: number of tumours which had regressed by ≧10% in volume by day 13, compared with pre-treatment volume on day 0 [1] | tumour regressions [1] | mean tumour volume on day 20 [2]
O=c1[nH]cc(F)c(=O)[nH]1 [5-FU, 5-fluorouracil, reference compound] | 68% | 6/15 | 40% | –
COc1cc2c(Nc3ccc(Br)cc3F)ncnc2cc1OCC1CCN(C)CC1 [ZD6474, 4-(4-bromo-2-fluoroanilino)-6-methoxy-7-(1-methylpiperidin-4-ylmethoxy)quinazoline] | 80% | 5/15 | 33% | 475 mm^3
